Experimental data from ChEMBL document CHEMBL5291721, “A preclinical secondary pharmacology resource illuminates target-adverse drug reaction associations of marketed drugs” (Nat Commun, 2023).

Experiments:
Cannabinoid receptor 1 = Cannabinoid receptor 1 (Homo sapiens, UniProt P21554); format: functional, cell-based
Endothelin-1 receptor = target: T1, Endothelin-1 receptor (Homo sapiens, UniProt P25101)
T1 sequence (P25101 whole entry): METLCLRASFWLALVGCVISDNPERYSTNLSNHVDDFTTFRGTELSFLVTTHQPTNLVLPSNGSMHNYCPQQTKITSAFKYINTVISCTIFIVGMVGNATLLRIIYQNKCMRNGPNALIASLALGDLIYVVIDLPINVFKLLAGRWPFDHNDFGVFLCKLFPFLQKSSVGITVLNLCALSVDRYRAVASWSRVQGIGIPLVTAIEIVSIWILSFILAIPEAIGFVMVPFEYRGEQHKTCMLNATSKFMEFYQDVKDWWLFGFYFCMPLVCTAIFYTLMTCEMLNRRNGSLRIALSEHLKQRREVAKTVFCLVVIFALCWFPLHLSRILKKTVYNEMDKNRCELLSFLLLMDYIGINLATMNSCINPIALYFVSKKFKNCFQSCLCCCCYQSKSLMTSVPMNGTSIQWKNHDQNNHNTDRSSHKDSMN

Histamine H1 receptor = Histamine H1 receptor (Homo sapiens, UniProt P35367)
Chain of Histamine H1 receptor (P35367 whole entry): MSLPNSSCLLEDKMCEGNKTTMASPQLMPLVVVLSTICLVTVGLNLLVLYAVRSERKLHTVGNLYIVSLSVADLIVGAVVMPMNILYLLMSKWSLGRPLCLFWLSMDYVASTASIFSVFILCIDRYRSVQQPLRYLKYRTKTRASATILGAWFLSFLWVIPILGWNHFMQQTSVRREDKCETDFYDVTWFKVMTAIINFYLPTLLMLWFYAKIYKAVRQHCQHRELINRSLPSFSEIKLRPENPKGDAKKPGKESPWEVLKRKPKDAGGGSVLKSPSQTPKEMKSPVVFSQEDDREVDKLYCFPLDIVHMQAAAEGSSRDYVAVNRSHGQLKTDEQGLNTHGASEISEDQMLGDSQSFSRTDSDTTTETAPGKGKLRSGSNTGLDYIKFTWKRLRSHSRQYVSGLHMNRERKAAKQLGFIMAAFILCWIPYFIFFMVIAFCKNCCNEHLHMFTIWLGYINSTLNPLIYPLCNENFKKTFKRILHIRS

Progesterone receptor = target: T2, Progesterone receptor (Homo sapiens, UniProt P06401); format: functional
T2 sequence (P06401 whole entry): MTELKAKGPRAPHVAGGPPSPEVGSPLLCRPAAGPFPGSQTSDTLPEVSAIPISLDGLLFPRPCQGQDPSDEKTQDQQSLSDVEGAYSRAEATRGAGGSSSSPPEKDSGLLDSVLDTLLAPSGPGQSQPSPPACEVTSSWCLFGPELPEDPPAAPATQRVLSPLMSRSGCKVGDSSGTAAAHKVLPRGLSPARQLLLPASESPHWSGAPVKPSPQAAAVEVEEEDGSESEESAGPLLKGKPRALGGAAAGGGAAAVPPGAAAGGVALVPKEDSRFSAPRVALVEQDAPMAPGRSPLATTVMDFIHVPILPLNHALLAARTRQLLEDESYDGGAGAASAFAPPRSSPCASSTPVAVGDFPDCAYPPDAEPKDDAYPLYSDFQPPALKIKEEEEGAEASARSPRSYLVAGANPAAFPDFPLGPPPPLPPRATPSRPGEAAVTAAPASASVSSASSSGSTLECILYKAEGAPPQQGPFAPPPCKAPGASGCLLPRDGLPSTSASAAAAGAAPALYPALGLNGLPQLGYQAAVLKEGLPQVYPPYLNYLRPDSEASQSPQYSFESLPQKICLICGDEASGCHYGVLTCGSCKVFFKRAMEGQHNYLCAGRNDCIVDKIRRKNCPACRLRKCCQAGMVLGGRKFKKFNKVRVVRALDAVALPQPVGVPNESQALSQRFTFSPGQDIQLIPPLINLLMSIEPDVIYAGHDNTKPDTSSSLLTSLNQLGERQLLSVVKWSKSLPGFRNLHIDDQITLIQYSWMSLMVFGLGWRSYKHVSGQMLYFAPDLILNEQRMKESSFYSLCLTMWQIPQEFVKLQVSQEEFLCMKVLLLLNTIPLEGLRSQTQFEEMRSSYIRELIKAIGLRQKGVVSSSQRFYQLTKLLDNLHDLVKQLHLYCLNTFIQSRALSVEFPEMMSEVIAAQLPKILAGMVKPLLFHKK

[1] = target: T3, Amine oxidase [flavin-containing] A (Homo sapiens, UniProt P21397); format: functional
T3 sequence (P21397 whole entry): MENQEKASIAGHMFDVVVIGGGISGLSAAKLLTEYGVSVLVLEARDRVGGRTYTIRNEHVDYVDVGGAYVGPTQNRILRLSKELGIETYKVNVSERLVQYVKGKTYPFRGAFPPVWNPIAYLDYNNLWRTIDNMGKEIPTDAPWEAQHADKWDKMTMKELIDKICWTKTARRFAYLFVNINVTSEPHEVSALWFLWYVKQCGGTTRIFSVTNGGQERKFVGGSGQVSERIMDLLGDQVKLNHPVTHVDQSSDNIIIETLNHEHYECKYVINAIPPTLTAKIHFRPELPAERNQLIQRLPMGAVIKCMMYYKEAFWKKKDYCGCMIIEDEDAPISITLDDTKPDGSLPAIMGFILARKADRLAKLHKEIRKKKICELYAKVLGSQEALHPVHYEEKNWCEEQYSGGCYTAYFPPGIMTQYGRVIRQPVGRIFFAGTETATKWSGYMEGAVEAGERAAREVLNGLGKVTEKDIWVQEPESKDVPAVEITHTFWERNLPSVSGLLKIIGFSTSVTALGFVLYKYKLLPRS

[2] = target: cGMP-inhibited 3',5'-cyclic phosphodiesterase 3A (Homo sapiens, UniProt Q14432); format: functional
Chain of cGMP-inhibited 3',5'-cyclic phosphodiesterase 3A (Q14432 whole entry): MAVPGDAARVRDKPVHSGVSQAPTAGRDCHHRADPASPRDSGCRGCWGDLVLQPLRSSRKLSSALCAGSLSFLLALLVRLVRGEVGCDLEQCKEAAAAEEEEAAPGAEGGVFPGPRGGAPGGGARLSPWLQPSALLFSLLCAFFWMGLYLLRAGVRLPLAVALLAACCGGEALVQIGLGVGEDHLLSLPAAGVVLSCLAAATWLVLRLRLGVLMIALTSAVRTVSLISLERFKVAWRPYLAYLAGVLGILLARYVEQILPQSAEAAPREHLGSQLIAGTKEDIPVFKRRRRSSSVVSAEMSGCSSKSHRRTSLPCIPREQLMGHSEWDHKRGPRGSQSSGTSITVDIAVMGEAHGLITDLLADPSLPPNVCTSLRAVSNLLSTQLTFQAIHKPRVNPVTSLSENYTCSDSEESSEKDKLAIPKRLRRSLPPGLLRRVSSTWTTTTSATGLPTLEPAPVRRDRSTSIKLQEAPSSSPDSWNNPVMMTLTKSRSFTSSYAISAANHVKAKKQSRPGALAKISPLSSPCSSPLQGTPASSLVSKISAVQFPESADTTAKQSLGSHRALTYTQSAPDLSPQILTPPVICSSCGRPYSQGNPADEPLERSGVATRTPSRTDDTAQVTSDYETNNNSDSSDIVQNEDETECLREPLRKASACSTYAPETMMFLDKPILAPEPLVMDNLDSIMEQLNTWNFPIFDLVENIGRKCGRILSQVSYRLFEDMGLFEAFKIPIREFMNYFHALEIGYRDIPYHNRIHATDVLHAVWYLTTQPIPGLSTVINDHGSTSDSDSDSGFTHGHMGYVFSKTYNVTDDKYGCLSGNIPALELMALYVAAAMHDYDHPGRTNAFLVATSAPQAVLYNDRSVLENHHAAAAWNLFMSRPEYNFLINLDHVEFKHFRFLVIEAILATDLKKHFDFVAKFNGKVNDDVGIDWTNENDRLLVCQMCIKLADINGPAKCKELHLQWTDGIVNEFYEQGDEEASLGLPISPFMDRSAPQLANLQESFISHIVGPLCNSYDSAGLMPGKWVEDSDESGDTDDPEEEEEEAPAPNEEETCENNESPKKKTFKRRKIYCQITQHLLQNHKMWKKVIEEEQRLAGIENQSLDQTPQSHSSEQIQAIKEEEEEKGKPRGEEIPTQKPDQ

Glucocorticoid receptor = target: T4, Glucocorticoid receptor (Homo sapiens, UniProt P04150)
T4 sequence (P04150 whole entry): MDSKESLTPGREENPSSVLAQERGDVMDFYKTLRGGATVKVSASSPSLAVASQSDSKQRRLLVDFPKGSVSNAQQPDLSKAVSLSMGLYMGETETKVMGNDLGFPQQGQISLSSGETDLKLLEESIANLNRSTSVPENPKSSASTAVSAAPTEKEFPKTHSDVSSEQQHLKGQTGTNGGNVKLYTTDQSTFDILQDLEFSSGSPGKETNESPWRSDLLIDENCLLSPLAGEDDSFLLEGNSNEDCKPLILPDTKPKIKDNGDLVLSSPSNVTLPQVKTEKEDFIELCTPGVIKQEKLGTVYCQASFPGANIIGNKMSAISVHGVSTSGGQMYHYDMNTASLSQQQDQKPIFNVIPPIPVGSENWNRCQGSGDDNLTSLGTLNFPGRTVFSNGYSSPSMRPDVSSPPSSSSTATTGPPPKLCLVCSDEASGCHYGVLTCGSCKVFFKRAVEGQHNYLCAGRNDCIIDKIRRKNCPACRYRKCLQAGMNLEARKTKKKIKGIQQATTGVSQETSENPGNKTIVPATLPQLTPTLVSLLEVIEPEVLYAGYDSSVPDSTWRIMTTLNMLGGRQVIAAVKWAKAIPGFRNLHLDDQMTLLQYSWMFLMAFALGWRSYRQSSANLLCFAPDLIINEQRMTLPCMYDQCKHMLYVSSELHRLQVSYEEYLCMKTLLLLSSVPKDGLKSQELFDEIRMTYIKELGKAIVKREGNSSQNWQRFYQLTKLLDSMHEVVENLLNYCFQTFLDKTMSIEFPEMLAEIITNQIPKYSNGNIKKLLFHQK
Note: assay procedure not described here.

Chain of Cannabinoid receptor 1 (P21554 whole entry): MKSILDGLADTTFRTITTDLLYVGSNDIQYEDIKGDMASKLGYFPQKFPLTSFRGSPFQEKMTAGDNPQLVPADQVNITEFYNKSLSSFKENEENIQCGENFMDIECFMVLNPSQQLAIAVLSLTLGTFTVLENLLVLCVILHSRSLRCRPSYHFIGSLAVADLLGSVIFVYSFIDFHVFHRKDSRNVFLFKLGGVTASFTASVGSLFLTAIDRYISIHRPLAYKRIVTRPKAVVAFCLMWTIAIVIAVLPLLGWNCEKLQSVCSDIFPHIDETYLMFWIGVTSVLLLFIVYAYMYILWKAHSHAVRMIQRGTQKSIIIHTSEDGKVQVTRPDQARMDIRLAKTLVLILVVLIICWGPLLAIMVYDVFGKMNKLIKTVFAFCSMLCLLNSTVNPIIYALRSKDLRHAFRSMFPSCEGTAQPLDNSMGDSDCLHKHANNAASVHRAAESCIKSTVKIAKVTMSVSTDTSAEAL

Compound	AC50 (Cannabinoid receptor 1)	AC50 (Endothelin-1 receptor)	AC50 (Histamine H1 receptor)	AC50 (Progesterone receptor)	AC50 [1]	AC50 [2]	AC50 (Glucocorticoid receptor)
CN1CCN(C(=O)OC2c3nccnc3C(=O)N2c2ccc(Cl)cn2)CC1 (stereo unspecified) [ZOPICLONE]	> 30 µM	> 30 µM	> 30 µM	> 30 µM	> 30 µM	> 30 µM	
CCCC(CCC)C(=O)O[C@H]1C[C@H]2CC[C@@H](C1)[N+]2(C)C [ANISOTROPINE]	> 30 µM	> 30 µM	> 30 µM	> 30 µM	> 30 µM	> 30 µM	
COc1ccc(C(=O)NCc2ccc(OCCN(C)C)cc2)cc1OC [ITOPRIDE]	> 30 µM	> 30 µM	> 30 µM	> 30 µM	> 30 µM	> 30 µM	> 30 µM
O=C1CN=C(c2ccccc2)c2cc(Cl)ccc2N1CC(F)(F)F [HALAZEPAM]	> 30 µM	> 30 µM	> 30 µM	> 30 µM	> 30 µM	> 30 µM	> 30 µM
CCC(C(=O)O)c1ccc(CC(C)C)cc1 (stereo unspecified) [BUTIBUFEN]	> 30 µM	> 30 µM	> 30 µM	> 30 µM	> 30 µM	> 30 µM	> 30 µM
[H]/N=C(/N)c1ccc(NCc2nc3cc(C(=O)N(CCC(=O)O)c4ccccn4)ccc3n2C)cc1 [DABIGATRAN]	> 30 µM	> 30 µM	> 30 µM	> 30 µM	> 30 µM	> 30 µM	
O=C(C[S+]([O-])C(c1ccccc1)c1ccccc1)NO (stereo unspecified)	> 30 µM	> 30 µM	> 30 µM	> 30 µM	> 30 µM	> 10 µM	> 30 µM
CCCCCCCCOc1ccccc1C(=O)Nc1ccc(C(=O)OCC[N+](C)(CC)CC)cc1 [OTILONIUM BROMIDE]	> 30 µM	> 1 µM	19 µM	7 µM	> 30 µM	20 µM	11 µM
COC(=O)[C@H]1[C@@H](OC(=O)c2ccccc2)C[C@@H]2CC[C@H]1N2C [COCAINE]	> 30 µM	> 30 µM	> 30 µM	> 30 µM	19 µM	> 30 µM	
TOCOFERSOLAN	> 30 µM	> 30 µM	> 30 µM	> 30 µM	> 30 µM	> 10 µM	> 30 µM
CCCCCCCCCCCC[N+](C)(C)CCOc1ccccc1 [DOMIPHEN]	> 30 µM	> 30 µM	12 µM	4.5 µM	28 µM	> 30 µM	18 µM
C=C1CC[C@@]2(O)[C@H]3Cc4ccc(O)c5c4[C@@]2(CCN3CC2CC2)[C@H]1O5	> 30 µM	> 30 µM	> 30 µM	> 30 µM	> 30 µM	> 30 µM	> 30 µM
C[C@H]1C[C@@H]2[C@H]([C@@H](O)C[C@@]3(C)[C@H]2CC[C@]3(O)C(=O)COC(=O)CCC(=O)O)[C@@]2(C)C=CC(=O)C=C12 [METHYLPREDNISOLONE HEMISUCCINATE]	> 30 µM	> 30 µM	> 30 µM	> 30 µM	> 30 µM	> 30 µM	0.67 µM
Cc1c(Cl)cccc1Nc1ccccc1C(=O)O [TOLFENAMIC ACID]	> 30 µM	> 30 µM	> 30 µM	26 µM	> 30 µM	> 30 µM	> 30 µM
Cc1nc2ccc(CN(C)c3ccc(C(=O)N[C@@H](CCC(=O)O)C(=O)O)s3)cc2c(=O)[nH]1 [RALTITREXED]		> 30 µM	> 30 µM	> 30 µM	> 30 µM	> 30 µM	
Cc1ccc(-c2nc3ccc(C)cn3c2CC(=O)N(C)C)cc1 [ZOLPIDEM]	> 30 µM	> 30 µM	> 30 µM	> 30 µM	> 30 µM	> 30 µM	> 30 µM
Nc1ncnc2c1ncn2[C@@H]1O[C@H](COP(=O)(O)O)[C@@H](O)[C@H]1O [ADENOSINE PHOSPHATE]	> 30 µM	> 30 µM	> 30 µM	> 30 µM	> 30 µM	16 µM	> 30 µM
CCCCC(C)(O)C/C=C/[C@H]1[C@H](O)CC(=O)[C@@H]1CCCCCCC(=O)OC (stereo partly specified) [MISOPROSTOL]	> 30 µM	> 30 µM	> 30 µM	27 µM	> 30 µM	> 30 µM	> 30 µM
CCCCCOC(=O)Nc1nc(=O)n([C@@H]2O[C@H](C)[C@@H](O)[C@H]2O)cc1F [CAPECITABINE]	> 30 µM	> 30 µM	> 30 µM	> 30 µM	> 30 µM	> 30 µM	
O=C(OCCN1CCOCC1)c1cccnc1Nc1cccc(C(F)(F)F)c1 [MORNIFLUMATE]	> 30 µM	> 30 µM	> 30 µM	> 30 µM	> 30 µM	> 30 µM	> 30 µM
CCOC(=O)[C@H](CCc1ccccc1)N[C@H]1CCCN2CCC[C@@H](C(=O)O)N2C1=O [CILAZAPRIL]	> 30 µM	> 30 µM	> 30 µM	> 30 µM	> 30 µM	> 30 µM	> 30 µM
O=C(O)Cc1cn(-c2ccccc2)nc1-c1ccc(Cl)cc1 [LONAZOLAC]	> 30 µM	> 30 µM	> 30 µM	> 30 µM		> 30 µM	> 30 µM
